From patent publication US20060025394A1, “Estradiol-related compounds and methods of use as anti-tumor agents” (priority 2003, published 2006)

Assays:
MCF-7 = experiment: Cytotoxicity testing (Example 7), MTS, MCF-7; assay type: cell-based
Method: (§1) Cytotoxicity Studies were done in DU-145 and MCF-7 Cells. […] We set out to test the efficacy of these compounds based on known affinities for ER-α previously reported. Cells were treated for five days with 1 mM of each compound in a defined media. Cell number was estimated by the MTS method. Similar studies were carried out in the MCF-7 cell line known to express both ER-α and -β, and display proliferative properties in the presence of classic estrogens.

DU-145 = experiment: Cytotoxicity testing (Example 7), MTS, DU-145; assay type: cell-based; settings: for DU145 % Cell#: five days, MTS
Method: as §1

NCR nude mice = settings: 5 to 40 mg/kg/day bolus IM injection, 40-day period
Method: Doses included 5 to 40 mg/kg/day bolus IM injection. Toxicity effects were gauged based on changes in animal weight and gross analysis of specific organs including liver, lung, prostate, brain, spleen, heart, and kidney, collected, and fixed in paraffin sections.

DU145 = experiment: MTS cell viability assay in DU145; assay type: cell-based; settings: DU145, concentrations above 1 μM
Method: (§2) DU145, LNCaP, PC3, and MCF-7 cells were obtained from the American Type Culture Collection (Manassas, Va.). DU145, PC3, and MCF-7 cells were maintained in Dulbecco's modified Eagle's medium/F-12 supplemented with 5% heat inactivated Fetal Calf Serum and Penicillin/Streptomycin (Invitrogen Life Technologies, Carlsbad, Calif.). LNCaP cells were maintained in RPMI 1640 medium supplemented in the same fashion. Cells were cultured in 75 cm^2 flasks (Falcon, BD Biosciences, Bedford, Mass.) at 37° C. and 5% CO2. For the MTS assay (Example 3), five thousand cells were plated in each well of a 24 well plate (Falcon), were allowed to attach for a 48-hour period in the media described, and changed to a defined medium, (DMEM/F-12 or RPMI1640) supplemented with insulin (BD Biosciences). A 1000× solution of the compound of interest solubilized in DMSO (Sigma, Saint Louis, Mo.) was diluted in the defined media just prior to starting each experiment, and media was refreshed every 48 to 72 hours throughout the experiments.
(§3) . Upon completing five days of treatment, the medium in each well was exchanged for 400 μL of an MTS solution (3-(4,5-dimethylthiazol-2-yl)-5-(3-carboxymethoxyphenyl)-2-(4-sulfophenyl)-2H-tetrazolium, inner salt; O'Toole SA, 2003, Cancer Detect Prev., 2003;27(1):47-54) spiked into media as per the manufacture's instructions (Promega, Madison, Wis.) and incubated for 2 hours at 37° C. before reading the absorbance on the μQuant UV/VIS plate reader, in conjunction with KCjunior Software (Bio-Tek Instruments, Winooski, Vt.) set at 490 nm. All experiments were carried out in quadruplicate, control wells were treated with the carrier DMSO. E2, which is estradiol-17β (Steraloids®, Newport, R.I.) and resveratrol (Sigma) were used as controls. […]

[1] = system: DU145, PC3, and LNCaP cell lines; experiment: MTS assay, values averaged or stated over the CaP cell lines; assay type: cell-based; settings: average
Method: as §2, §3

[2] = Table 3, five days, 1 mM of each compound, defined media
[3] = Table 3, 1 mM of each compound, defined media
[4] = Table 4 comparative study, five days, 1 mM
[5] = Table 4 comparative study, 1 mM

Structure (SMILES) | MCF-7 % Cell# (MCF-7; [2]) [%] | DU145 % Cell# (DU-145; [3]) [%] | MCF-7 % Cell# (MCF-7; [4]) [%] | DU145 % Cell# (DU-145; [5]) [%] | also measured
CC12CCC3c4ccc(O)cc4CCC3C1CCC2(O)C=Cc1ccccc1 (stereo not shown) [Compound 1] | 22 | 62 |  |  | 
CC12CCC3c4ccc(O)cc4CCC3C1CCC2(O)C=Cc1ccccc1F (stereo not shown) [Compound 2] | 40 | 80 |  |  | 
Cc1ccc(C=CC2(O)CCC3C4CCc5cc(O)ccc5C4CCC32C)cc1 (stereo not shown) [Compound 3] | 23 | 33 |  |  | 
COC(=O)c1ccc(C=CC2(O)CCC3C4CCc5cc(O)ccc5C4CCC32C)cc1 (stereo not shown) [Compound 4] | 28 | 100 |  |  | 
Cc1cccc(C=CC2(O)CCC3C4CCc5cc(O)ccc5C4CCC32C)c1 (stereo not shown) [Compound 5] | 24 | 9 |  |  | overall result in cytotoxicity testing (Table 3) (DU-145): good results
CC12CCC3c4ccc(O)cc4CCC3C1CCC2(O)C=Cc1ccc(F)cc1 (stereo not shown) [Compound 6] | 28 | 67 |  |  | 
CC12CCC3c4ccc(O)cc4CCC3C1CCC2(O)C=Cc1ccc(C(=O)O)cc1 (stereo not shown) [Compound 8] | 120 | 99 |  |  | 
CC12CCC3c4ccc(O)cc4CCC3C1CCC2(O)C=Cc1ccc(F)cc1 (stereo not shown) [Compound 9] | 27 | 17 |  |  | overall result in cytotoxicity testing (Table 3) (DU-145): good results
CC12CCC3c4ccc(O)cc4CCC3C1CCC2(O)C=Cc1ccc(C#N)cc1 (stereo not shown) [Compound 10] | 23 | 92 |  |  | 
COc1ccc(C=CC2(O)CCC3C4CCc5cc(O)ccc5C4CCC32C)cc1 (stereo not shown) [Compound 11] | 28 | 60 |  |  | 
COC(=O)c1ccccc1C=CC1(O)CCC2C3CCc4cc(O)ccc4C3CCC21C (stereo not shown) [Compound 12] | 30 | 92 |  |  | 
C=CC1(O)CCC2C3CCc4cc(O)ccc4C3CCC21C (stereo not drawn) [Compound 13, 17α-vinyl-E2, reference compound] | 53 | 98 |  |  | 
COC(=O)c1ccc(C=CC2(O)CCC3C4CCc5cc(O)ccc5C4CCC32C)cc1 (stereo not shown) [Compound 15] | 32 | 92 |  |  | 
CC12CCC3c4ccc(O)cc4CCC3C1CCC2(O)C=Cc1ccccc1CO (stereo not shown) [Compound 16] | 55 | 105 |  |  | 
CC12CCC3c4ccc(O)cc4CCC3C1CCC2(O)C=Cc1ccccc1C(F)(F)F (stereo not shown) [Compound 19] | 20 | 5 |  |  | overall result in cytotoxicity testing (Table 3) (DU-145): good results
CC12CCC3c4ccc(O)cc4CCC3C1CCC2(O)C=Cc1ccccc1CO (stereo not shown) [Compound 20] | 24 | 97 |  |  | 
CC12CCC3c4ccc(O)cc4CCC3C1CCC2(O)C=CBr (stereo not drawn) [Compound 22, 17α-Br-vinyl-E2, reference compound] | 59 | 91 |  |  | 
CC12CCC3c4ccc(O)cc4CCC3C1CCC2(O)C=Cc1cccc(C(F)(F)F)c1 (stereo not shown) [Compound 23] | 19 | 5 |  |  | overall result in cytotoxicity testing (Table 3) (DU-145): good results

Structure (SMILES) | MCF-7 % Cell# (MCF-7; [2]) [%] | DU145 % Cell# (DU-145; [3]) [%] | MCF-7 % Cell# (MCF-7; [4]) [%] | DU145 % Cell# (DU-145; [5]) [%] | also measured
CC12CCC3c4ccc(O)cc4CCC3C1CCC2(O)C=Cc1ccccc1C(=O)O (stereo not shown) [Compound 24] | 61 | 103 |  |  | 
CC12CCC3c4ccc(O)cc4CCC3C1CCC2(O)C=Cc1ccc(C(F)(F)F)cc1 (stereo not shown) [Compound 25] | 13 | 5 |  |  | overall result in cytotoxicity testing (Table 3) (DU-145): good results; general toxicity (animal weight, gross analysis of organs) (NCR nude mice): No apparent detrimental effects
C[C@]12C[C@H](c3ccc(OCCCCCS(=O)(=O)CCCC(F)(F)C(F)(F)F)cc3)[C@@H]3c4ccc(O)cc4CC[C@H]3[C@@H]1CC[C@@H]2O [Compound 26, RU 58668, reference compound] |  |  | 37 | 73 | 
CC/C(=C(\c1ccccc1)c1ccc(OCCN(C)C)cc1)c1ccccc1 [Compound 27, ICI 47, 699, reference compound] |  |  | 21 | 12 | 
C[C@]1(O)CC[C@H]2[C@@H]3CCC4=CC(=O)CCC4=C3C=C[C@@]21C [Compound 29, RU 1881, reference compound] |  |  | 94 | 99 | 
CC/C(=C(\c1ccccc1)c1ccc(OCCN(C)C)cc1)c1ccccc1.O=C(O)CC(O)(CC(=O)O)C(=O)O [Compound 30, TAM Citr, reference compound] |  |  | 33 | 47 | 
CN(C)CCOc1ccc([C@H]2C[C@]3(C)[C@@H](O)CC[C@H]3[C@@H]3CCc4cc(O)ccc4[C@H]32)cc1 [Compound 31, RU 39411, reference compound] |  |  | 102 | 102 | 
C[C@]12CC[C@@H]3c4ccc(O)cc4C[C@@H](CCCCCCCCC[S+]([O-])CCCC(F)(F)C(F)(F)F)[C@H]3[C@@H]1CC[C@@H]2O (stereo partly shown) [Compound 32, ICI-182780, reference compound] |  |  | 62 | 94 | 
CC/C(=C(\c1ccccc1)c1ccc(OCCN(C)C)cc1)c1ccccc1 [Compound 33, Z-TAM, reference compound] |  |  | 25 | 56 | 
COc1ccc2c(c1)CCC(c1ccccc1)=C2c1ccc(OCCN2CCCC2)cc1.Cl [Compound 34, 4-11, 100A, reference compound] |  |  | 32 | 29 | 
C#C[C@]1(O)CC[C@H]2[C@@H]3CCC4=Cc5oncc5C[C@]4(C)[C@H]3CC[C@@]21C [Compound 35, Danazol, reference compound] |  |  | 107 | 92 | 
C#C[C@]1(O)CC[C@H]2[C@@H]3CCc4cc(O)ccc4[C@H]3[C@H](OC)C[C@@]21C [Compound 37, RU16117, reference compound] |  |  | 103 | 101 | 
CC12CCC3c4ccc(O)cc4CCC3C1CCC2(O)C=Cc1ccc([N+](=O)[O-])cc1 (stereo not shown) [Compound 46] | 35 | 44 |  |  | 
CC12CCC3c4ccc(O)cc4CCC3C1CCC2(O)C=Cc1ccccc1 (stereo not shown) [Compound 48] | 27 | 47 |  |  | 
CC12CCC3c4ccc(O)cc4CCC3C1CCC2(O)C=Cc1ccccc1[N+](=O)[O-] (stereo not shown) [Compound 49] | 29 | 17 |  |  | 
C[C@]12CC[C@@H]3c4ccc(O)cc4CC[C@H]3[C@@H]1CC[C@@H]2O [Compound E2, estradiol-17β, reference compound] | 90 | 100 | 90 | 100 | cytotoxic or proliferative effects (DU145): no apparent cytotoxic or proliferative effects; difference in cell number over non-treated cells ([1]; negative control): 0±3.4%
Oc1ccc(C=Cc2cc(O)cc(O)c2)cc1 [resveratrol] |  |  |  |  | decrease in cell number ([1]; positive control): 65±5.3%
